Measurements from publication PMC9516332 (Frontiers in Oncology, 2022).
Like-named read-outs stand apart in the source and are kept apart here.

Columns and labels:
Assay in all cases: Kinase panel profiling at 1 µmol/L (MSA or IMAP), percentage inhibition
Type in all cases: biochemical
[1] = target: panel of 255 wild-type kinases (Homo sapiens, UniProt P04626); details: read-out: %-inhibition at 1 µmol/L, HER2
[2] = target: panel of 255 wild-type kinases (Homo sapiens, UniProt P22694); details: read-out: %-inhibition at 1 µmol/L, PKACβ
[3] = target: T1, panel of 255 wild-type kinases (Homo sapiens, UniProt P42681); details: read-out: %-inhibition at 1 µmol/L, TXK
T1 sequence (P42681 1-527): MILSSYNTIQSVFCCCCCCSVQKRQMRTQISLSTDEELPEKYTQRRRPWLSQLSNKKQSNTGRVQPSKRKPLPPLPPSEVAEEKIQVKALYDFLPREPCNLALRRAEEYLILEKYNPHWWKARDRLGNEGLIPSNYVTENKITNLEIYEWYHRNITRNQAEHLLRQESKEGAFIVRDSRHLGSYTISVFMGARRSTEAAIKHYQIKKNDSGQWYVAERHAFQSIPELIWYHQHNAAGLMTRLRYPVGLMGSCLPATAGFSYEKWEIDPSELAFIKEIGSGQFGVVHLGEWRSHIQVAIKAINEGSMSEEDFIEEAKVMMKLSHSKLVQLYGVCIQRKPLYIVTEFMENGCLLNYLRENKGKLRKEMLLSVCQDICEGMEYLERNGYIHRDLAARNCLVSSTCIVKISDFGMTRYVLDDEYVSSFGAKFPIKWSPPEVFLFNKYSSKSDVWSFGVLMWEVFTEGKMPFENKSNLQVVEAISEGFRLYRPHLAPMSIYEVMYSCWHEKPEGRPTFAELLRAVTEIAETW

[4] = target: panel of 255 wild-type kinases (Homo sapiens, UniProt P49841); details: kinase GSK3β; 1 µmol/L single concentration
[5] = target: panel of 255 wild-type kinases (Homo sapiens, UniProt Q04759); details: read-out: %-inhibition at 1 µmol/L, PKCθ
[6] = target: panel of 255 wild-type kinases (Homo sapiens, UniProt Q15375); details: read-out: %-inhibition at 1 µmol/L, EPHA7
[7] = target: panel of 255 wild-type kinases (Homo sapiens, UniProt Q86Z02); details: read-out: %-inhibition at 1 µmol/L, HIPK1
[8] = target: T2, panel of 255 wild-type kinases (Homo sapiens, UniProt Q8TD19); details: read-out: %-inhibition, NEK9
T2 sequence (Q8TD19 1-979): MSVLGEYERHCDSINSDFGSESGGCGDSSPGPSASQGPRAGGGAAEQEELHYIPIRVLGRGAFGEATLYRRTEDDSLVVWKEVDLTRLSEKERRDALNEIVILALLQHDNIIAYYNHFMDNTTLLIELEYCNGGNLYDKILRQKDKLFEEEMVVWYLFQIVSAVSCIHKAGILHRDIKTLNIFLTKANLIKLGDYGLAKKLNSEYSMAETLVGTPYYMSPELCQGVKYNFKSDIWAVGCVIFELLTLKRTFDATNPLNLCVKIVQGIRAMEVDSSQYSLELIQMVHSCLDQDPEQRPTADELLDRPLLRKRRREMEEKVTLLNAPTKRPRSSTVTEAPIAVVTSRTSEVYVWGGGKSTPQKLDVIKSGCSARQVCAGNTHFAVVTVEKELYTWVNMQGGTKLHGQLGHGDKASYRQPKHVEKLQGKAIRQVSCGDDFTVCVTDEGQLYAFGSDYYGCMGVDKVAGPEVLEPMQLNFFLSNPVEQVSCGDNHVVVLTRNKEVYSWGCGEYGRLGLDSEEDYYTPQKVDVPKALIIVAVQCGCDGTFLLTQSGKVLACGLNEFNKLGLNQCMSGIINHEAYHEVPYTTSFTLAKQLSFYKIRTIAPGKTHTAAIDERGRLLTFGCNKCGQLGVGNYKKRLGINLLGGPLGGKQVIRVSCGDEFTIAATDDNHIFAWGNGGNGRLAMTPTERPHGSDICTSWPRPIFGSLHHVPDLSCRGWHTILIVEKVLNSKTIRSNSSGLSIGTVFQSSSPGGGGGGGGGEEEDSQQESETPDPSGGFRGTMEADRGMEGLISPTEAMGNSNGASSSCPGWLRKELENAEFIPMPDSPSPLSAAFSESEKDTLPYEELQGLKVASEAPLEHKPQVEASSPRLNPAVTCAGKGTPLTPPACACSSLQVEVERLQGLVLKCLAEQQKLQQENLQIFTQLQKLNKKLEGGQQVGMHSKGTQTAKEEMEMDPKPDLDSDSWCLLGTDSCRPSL

[9] = target: panel of 255 wild-type kinases (Homo sapiens, UniProt Q96GD4); details: read-out: %-inhibition AurB
[10] = target: panel of 255 wild-type kinases (Homo sapiens, UniProt Q9BYP7); details: read-out: %-inhibition at 1 µmol/L, WNK3
[11] = target: panel of 255 wild-type kinases (Homo sapiens, UniProt Q9NYA1); details: read-out: %-inhibition at 1 µmol/L, SPHK1
[12] = target: panel of 255 wild-type kinases (Homo sapiens, UniProt Q9UQM7); details: read-out: %-inhibition CaMK2α
[13] = kinase HER2, 1 µmol/L single concentration
[14] = kinase PKACβ, 1 µmol/L single concentration
[15] = kinase TXK, 1 µmol/L single concentration
[16] = kinase PKCθ, 1 µmol/L single concentration
[17] = kinase EPHA7, 1 µmol/L single concentration
[18] = kinase HIPK1, 1 µmol/L single concentration
[19] = NEK9, 1 µmol/L single concentration
[20] = AurB kinase assay, 1 µmol/L single concentration
[21] = kinase WNK3, 1 µmol/L single concentration
[22] = kinase SPHK1, 1 µmol/L single concentration
[23] = CaMK2α kinase assay, 1 µmol/L single concentration

SMILES | inhibition at 1 µM [1, 13] [%] | inhibition at 1 µM [2, 14] [%] | inhibition at 1 µM [3, 15] [%] | inhibition at 1 µM [4] [%] | inhibition at 1 µM [5, 16] [%] | inhibition at 1 µM [6, 17] [%] | inhibition at 1 µM [7, 18] [%] | inhibition at 1 µM [8, 19] [%] | inhibition at 1 µM [9, 20] [%] | inhibition at 1 µM [10, 21] [%] | inhibition at 1 µM [11, 22] [%] | inhibition at 1 µM [12, 23] [%] | other results
Cc1nc(NC(=O)N2CCC[C@H]2C(N)=O)sc1-c1ccnc(C(C)(C)C(F)(F)F)c1 [alpelisib] | 19 | -20 | -4 | -4 | -0.212 | -1.3 | 9 | 2.8 | -4.26 | -3 | -5.44 | -1.21 | 
Cn1cc(-c2cc3c(N4CCN(c5ncc([C@@](C)(N)c6ccc(F)cc6)cn5)CC4)ncnn3c2)cn1 [avapritinib] | 12 | -19 | 20 | -5.32 | 2.6 | 13 | 1.58 | 30 | 20 | -0.0892 | -1.72 | -2.45 | 
Cn1cnc2c(F)c(Nc3ccc(Br)cc3F)c(C(=O)NOCCO)cc21 [binimetinib] | 1.43 | -0.56 | -3 | -1.84 | -2.27 | 0.598 | 0.44 | -6.59 | -3.18 | -2.67 | -26 | -4.55 | 
CNC(=O)c1ccc(-c2cnc3ncc(Cc4ccc5ncccc5c4)n3n2)cc1F [capmatinib] |  |  |  |  |  |  |  |  |  |  |  |  | inhibition at 1 µM [1]: 9%; inhibition at 1 µM [2]: -9%; inhibition at 1 µM [3]: 2.34%; inhibition at 1 µM [5]: -5.31%; inhibition at 1 µM [6]: -0.309%; inhibition at 1 µM [7]: -2.58%; inhibition at 1 µM [8]: -1.11%; inhibition at 1 µM [9]: 4.24%; inhibition at 1 µM [10]: -1.77%; inhibition at 1 µM [11]: -5.27%; inhibition at 1 µM [12]: -0.603%
COc1cc2ncnc(Nc3ccc(F)c(Cl)c3)c2cc1NC(=O)/C=C/CN1CCCCC1 [dacomitinib] | 100 | 6 | 80 | 11 | 1.57 | 38 | 3.42 | -1.05 | 2 | -2.62 | -15 | -1.13 | 
C[C@H](Nc1ncnc2nc[nH]c12)c1cc2cccc(Cl)c2c(=O)n1-c1ccccc1 [duvelisib] | 19 | -16 | -0.177 | -0.808 | 1.09 | -2.14 | 0.739 | 1.7 | 0.417 | -0.718 | -3.25 | 0.0129 | 
COC(=O)N[C@@H](C)CNc1nccc(-c2cn(C(C)C)nc2-c2cc(Cl)cc(NS(C)(=O)=O)c2F)n1 [encorafenib] | 4.47 | 9.51 | -3.43 | 92 | 2 | 5 | 5.6 | -4.26 | -0.69 | -1.55 | -5.65 | -2.55 | 
CN1CCN(c2ccc(C(=O)Nc3n[nH]c4ccc(Cc5cc(F)cc(F)c5)cc34)c(NC3CCOCC3)c2)CC1 [entrectinib] | 22 | -21 | 98 | -1.6 | 10 | 44 | 11 | 17 | 48 | 8.51 | -4 | 12 | 
CCc1nc(C(N)=O)c(Nc2ccc(N3CCC(N4CCN(C)CC4)CC3)c(OC)c2)nc1NC1CCOCC1 [gilteritinib] | 15 | 22 | 79 | 4 | 12 | 79 | 71 | 21 |  | 5 | -6 | 36 | inhibition at 1 µM [9]: 64%
CCN1CCN(c2ccc(Nc3cc(N(C)C(=O)Nc4c(Cl)c(OC)cc(OC)c4Cl)ncn3)cc2)CC1 [infigratinib] | 4.73 | -17 | 4.32 | -9 | -3 | -4 | -4.25 | 10 | -5 | 1.62 | -14 | -1.22 | 
O=C(Nc1cnn2ccc(N3CCC[C@@H]3c3cc(F)ccc3F)nc12)N1CC[C@H](O)C1 [larotrectinib] | -2.32 | -14 | 16 | -11 | -2.77 | -0.152 | -3.73 | -4.43 | -4.57 | -0.6 | -16 | 2.74 | 
C[C@H]1Oc2cc(cnc2N)-c2c(nn(C)c2C#N)CN(C)C(=O)c2ccc(F)cc21 [lorlatinib] | 21 | -18 | 3.52 | -4.7 | 3 | 56 | -1.71 | 6 | 5 | 6 | -7 | 3.76 | 
